≈ marks a conversion by molar mass, not a printed value.
Key:
[1] = Selectivity ratio of IC50 for Pseudomonas aeruginosa 9027 electron transport chain to IC50 for Pseudomonas aeruginosa ATP synthase; assay type: toxicity
[2] = Inhibition of Pseudomonas aeruginosa ATP synthase expressed in Escherichia coli DK8/pASH20 inverted membrane vesicles by luciferin/luciferase luminescence assay; assay type: cell membranes, Membrane vesicle
[3] = Inhibition of Pseudomonas aeruginosa 9027 electron transport chain in inverted membrane vesicles assessed as fluorescence quenching using amino-6-chloro-2-methoxyacridine; assay type: cell membranes
Pseudomonas aeruginosa [4] = assay: Antibacterial activity against Pseudomonas aeruginosa ATCC BAA-2109 assessed as growth inhibition incubated for 12 to 15 hrs by broth microdilution method; assay type: functional; settings: time 12-15 hrs
Pseudomonas aeruginosa [5] = assay: Antibacterial activity against Pseudomonas aeruginosa ATCC BAA-2108 assessed as growth inhibition incubated for 12 to 15 hrs by broth microdilution method; assay type: functional; settings: time 12-15 hrs
Pseudomonas aeruginosa [6] = assay: Antibacterial activity against Pseudomonas aeruginosa efflux knockout GKCW120 (Pdelta6) assessed as growth inhibition incubated for 12 to 15 hrs by broth microdilution method; assay type: functional; settings: time 12-15 hrs
Pseudomonas aeruginosa [7] = assay: Antibacterial activity against Pseudomonas aeruginosa ATCC BAA-2110 assessed as growth inhibition incubated for 12 to 15 hrs by broth microdilution method; assay type: functional; settings: time 12-15 hrs
Pseudomonas aeruginosa [8] = assay: Antibacterial activity against Pseudomonas aeruginosa 9027 assessed as growth inhibition incubated for 12 to 15 hrs by broth microdilution method; assay type: functional; settings: time 12-15 hrs
[9] = Inhibition of Escherichia coli electron transport chain in inverted membrane vesicles; assay type: cell membranes
[10] = Solubility of the compound in antibacterial activity assay medium; assay type: physicochemical

Compound | Ratio IC50 [1] | IC50 [2] [µg/mL] | IC50 [3] [µg/mL] | other results
CN(C)CCCNCc1cc2ccccc2nc1SCc1ccccc1 | 7 | 6 (≈ 16.4 µM) | 44 (≈ 120 µM) | 
CN(C)Cc1ccc(CNCc2cc3ccccc3nc2SCc2ccccc2)cc1 | 12 | 2.3 (≈ 5.38 µM) | 27 (≈ 63.1 µM) | MIC>85 (Pseudomonas aeruginosa [4]): >128 µg/mL; MIC>85 (Pseudomonas aeruginosa [5]): 64 µg/mL (≈ 150 µM); MIC>85 (Pseudomonas aeruginosa [6]): 16 µg/mL (≈ 37.4 µM); MIC>85 (Pseudomonas aeruginosa [7]): >128 µg/mL; MIC>85 (Pseudomonas aeruginosa [8]): >128 µg/mL
CCN1CCC(CCNCc2cc3ccccc3nc2SC)CC1 |  | 39 (≈ 114 µM) |  | 
CSc1nc2ccccc2cc1CNCc1ccc(N(C)C)cc1 |  | 5 (≈ 14.8 µM) |  | 
CSc1nc2ccccc2cc1CNCCc1nc(C)cc(C)n1 |  | 67 (≈ 198 µM) |  | 
CSc1nc2ccccc2cc1CNCCc1cnc[nH]1 |  | 16 (≈ 53.6 µM) |  | 
GENTAMICIN |  |  |  | MIC>85 (Pseudomonas aeruginosa [4]): 2 µg/mL; MIC>85 (Pseudomonas aeruginosa [5]): 16 µg/mL; MIC>85 (Pseudomonas aeruginosa [6]): > 4 µg/mL; MIC>85 (Pseudomonas aeruginosa [7]): 4 µg/mL; MIC>85 (Pseudomonas aeruginosa [8]): 2 µg/mL
CSc1nc2ccccc2cc1CNCCCCN(C)C |  | 68 (≈ 224 µM) |  | 
CCN1CCC(CCNCc2cc3ccccc3nc2SCc2ccccc2)CC1 | 26 | 1 (≈ 2.38 µM) | 26 (≈ 62 µM) | 
c1ccc(CSc2nc3ccccc3cc2CNCCc2cnc[nH]2)cc1 |  | 2 (≈ 5.34 µM) | 7 (≈ 18.7 µM) | IC50 [9]: 14 µg/mL (≈ 37.4 µM)
CN(C)CCCCCNCc1cc2ccccc2nc1SCc1ccccc1 | 28 | 2 (≈ 5.08 µM) | 57 (≈ 145 µM) | 
Cc1cc(C)nc(CCNCc2cc3ccccc3nc2SCc2ccccc2)n1 |  | 3 (≈ 7.24 µM) |  | 
CN(C)c1ccc(CNCc2cc3ccccc3nc2SCc2ccccc2)cc1 |  |  |  | solubility [10]: > 16 µg/mL
CSc1nc2ccccc2cc1CNCCc1cccn1C |  | 5 (≈ 16.1 µM) |  | 
c1ccc(CSc2nc3ccccc3cc2CNCCC2CCN(C3CCCC3)CC2)cc1 | 14 | 1 (≈ 2.18 µM) | 14 (≈ 30.5 µM) | 
Cn1cccc1CCNCc1cc2ccccc2nc1SCc1ccccc1 |  | 4 (≈ 10.3 µM) |  | 
CSc1nc2ccccc2cc1CNCCCN(C)C |  | 43 (≈ 149 µM) |  | 
CSc1nc2ccccc2cc1CNCCC1CCN(C2CCCC2)CC1 |  | 21 (≈ 54.7 µM) |  | 
CSc1nc2ccccc2cc1CNCc1ccc(CN(C)C)cc1 | 1 | 30 (≈ 85.3 µM) | 29 (≈ 82.5 µM) | MIC>85 (Pseudomonas aeruginosa [4]): 256 µg/mL (≈ 728 µM); MIC>85 (Pseudomonas aeruginosa [5]): 128 µg/mL (≈ 364 µM); MIC>85 (Pseudomonas aeruginosa [6]): 64 µg/mL (≈ 182 µM); MIC>85 (Pseudomonas aeruginosa [7]): >256 µg/mL; MIC>85 (Pseudomonas aeruginosa [8]): >256 µg/mL
CN(C)CCCCNCc1cc2ccccc2nc1SCc1ccccc1 | 26 | 1 (≈ 2.63 µM) | 26 (≈ 68.5 µM) | 
CSc1nc2ccccc2cc1CNCCCCCN(C)C |  | 19 (≈ 59.8 µM) |  | 

Source: ChEMBL document CHEMBL5357010, “Amine Basicity of Quinoline ATP Synthase Inhibitors Drives Antibacterial Activity against Pseudomonas aeruginosa” (ACS Med Chem Lett, 2024)
